{"source": "patent US7332602B2", "about": "“Pyridyl substituted heterocycles useful for treating or preventing HCV infection” (Rigel Pharmaceuticals, Inc., priority 2002, dated 2008)", "key": {"[1]": {"system": "HCV replicon (5-2 Luc replicon-comprising cells)", "assay": "HCV replicon assay (luciferase reporter)", "format": "cell-based, Hepatitis C virus", "details": "read-out: Replicon (IC50, 50% reduction in luciferase emission)", "description": "The inhibitory activity of certain exemplary compounds of the invention was confirmed using an HCV replicon assay. The HCV replicon can include such features as the HCV IRES, the HCV 3′ untranslated region, selected HCV genes encoding HCV polypeptides, selectable markers, and a reporter gene such as luciferase, GEP, etc. In the assay, actively dividing 5-2 Luc replicon-comprising cells were seeded at a density of between about 5,000 and 7,500 cells/well onto 96 well plates (about 90 μl of cells per well) and incubated at 37° C. and 5% CO2 for 24 hours. Then, the test compound (in a volume of about 10 μl) was added at various concentrations to each well and the cells were incubated for an additional 24 hours before luciferase assay. The cells were harvested, and HCV replication or translation was monitored via a reporter assay, e.g., a luciferase reporter assay. The media was aspirated from each cell and Bright-Glo ([…].) luciferase assay reagents were added to each well according to the manufacturer's instructions. In this assay, the amount of test compound that yielded a 50% reduction in luciferase emission (IC50) was determined."}, "[2]": {"assay": "cytotoxicity assay (Cell Titer Glo)", "format": "cell-based", "details": "human; 48 hr with compound, ATP-dependent Cell Titer Glo; read-out: IC50 (cytotoxicity, number of viable cells)", "description": "Compounds 1, 3, 7, 9, 11, 13, 17, 19, 21, 27, 29, 31, 33, 35, 37, 39, 47, 49, 51, 57 and 69 were tested in a cytotoxicity assay with liver cells including an HCV replicon (5-2 Luc cells, 9-13 cells or Huh-7 cells). In the assay, cells were seeded onto 96-well plates (approx. 7500 cells/well in a volume of 90 μl) and grown for 24 hr at 37° C. On day 2, various concentrations of test compound (in a volume of 10 μl) were added to the wells and the cells were grown for an additional 48 hr at 37° C. On day 4, an ATP-dependent R-Luciferase assay (Cell Titer Glo assay) was performed to determine the number of viable cells."}, "[3]": {"system": "HCV proteins (HCV replication)", "assay": "quantitative Western blot analysis with antibodies specific for certain HCV proteins", "format": "cell-based, Hepatitis C virus", "details": "read-out: Western (IC50, 50% reduction in the amount of the specified HCV protein)", "description": "Certain exemplary compounds of the invention were also tested for their ability to inhibit HCV replication using a quantitative Western blot analysis with antibodies specific for certain HCV proteins. In this assay, the amount of test compound that yielded a 50% reduction in the amount of the specified HCV protein as compared to a control sample (IC50) was determined."}, "[4]": {"details": "Hepatitis C virus, first symbol of the Replicon/Western cell, 5-2 Luc replicon cells, 24 hours with compound"}, "[5]": {"details": "Hepatitis C virus, second symbol of the Replicon/Western cell"}}, "note": "Read-outs that look alike come from different tables or passages of the source."}
{"compound": "O=C(Nc1ccnc(-c2cc(-c3c(F)cccc3C(F)(F)F)no2)c1)C(Cl)Cl", "note": "[Compound 3, 2,2-Dichloro-N-[2-[3-(2-fluoro-6-trifluoromethylphenyl)-5-isoxazolyl]-(4-pyridyl)] Acetamide]", "values": [{"measurement": "IC50", "setting": "[1]; [4]", "result": "< 10", "unit": "µM"}, {"measurement": "IC50 at 48 h", "setting": "[2]", "result": "≥ 10", "unit": "µM"}, {"measurement": "IC50", "setting": "[3]; [5]", "result": "< 10", "unit": "µM"}]}
{"compound": "COc1cccc(F)c1-c1cc(-c2cc(NC(=O)C(Cl)Cl)ccn2)on1", "note": "[Compound 5, 2,2-Dichloro-N-[2-[3-(2-fluoro-6-methoxyphenyl)-5-isoxazolyl]-(4-pyridyl)] Acetamide]", "values": [{"measurement": "IC50", "setting": "[1]; [4]", "result": "> 10", "unit": "µM"}, {"measurement": "IC50", "setting": "[3]; [5]", "result": "< 10", "unit": "µM"}]}
{"compound": "O=C(Nc1cncc(-c2cc(-c3c(Cl)cccc3Cl)no2)c1)C(Cl)Cl", "note": "[Compound 7, 2,2-Dichloro-N-[5-[3-(2,6-dichlorophenyl)-5-isoxazolyl]-(3-pyridyl)] Acetamide]", "values": [{"measurement": "IC50", "setting": "[1]; [4]", "result": "< 10", "unit": "µM"}, {"measurement": "IC50 at 48 h", "setting": "[2]", "result": "≥ 10", "unit": "µM"}, {"measurement": "IC50", "setting": "[3]; [5]", "result": "< 10", "unit": "µM"}]}
{"compound": "O=C(Nc1ccnc(-c2cc(-c3c(Cl)cccc3Cl)no2)c1)C(Cl)Cl", "note": "[Compound 9, 2,2-Dichloro-N-[2-[3-(2,6-dichlorophenyl)-5-isoxazolyl]-(4-pyridyl)] Acetamide]", "values": [{"measurement": "IC50", "setting": "[1]; Hepatitis C virus, 24 h", "result": "< 10", "unit": "µM"}, {"measurement": "IC50 at 48 h", "setting": "[2]", "result": "≥ 10", "unit": "µM"}, {"measurement": "IC50", "setting": "[3]; Hepatitis C virus", "result": "< 10", "unit": "µM"}]}
{"compound": "O=C(Nc1cccc(-c2cc(-c3cc(Cl)nc(Cl)c3)no2)c1)C(Cl)Cl", "note": "[Compound 11, 2,2-Dichloro-N-[3-[3-[(2,6-dichloro)-4-pyridyl]-5-isoxazolyl]phenyl] Acetamide]", "values": [{"measurement": "IC50", "setting": "[1]; first symbol of the Replicon/Western cell, 5-2 Luc replicon cells, 24 hours with compound", "result": "> 10", "unit": "µM"}, {"measurement": "IC50", "setting": "[3]; second symbol of the Replicon/Western cell", "result": "< 10", "unit": "µM"}]}
{"compound": "O=C(Nc1cncc(-c2cc(-c3c(F)cccc3Cl)no2)c1)C(Cl)Cl", "note": "[Compound 13, 2,2-Dichloro-N-[5-[3-(2-chloro-6-fluorophenyl)-5-isoxazolyl]-(3-pyridyl)] Acetamide]", "values": [{"measurement": "IC50", "setting": "[1]; [4]", "result": "< 10", "unit": "µM"}, {"measurement": "IC50 at 48 h", "setting": "[2]", "result": 3, "unit": "µM"}, {"measurement": "IC50", "setting": "[3]; [5]", "result": "< 10", "unit": "µM"}]}
{"compound": "COc1cccc(F)c1-c1cc(-c2cncc(NC(=O)C(Cl)Cl)c2)on1", "note": "[Compound 17, 272-Dichloro-N-[5-[3-(2-fluoro-6-methoxyphenyl)-5-isoxazolyl]-(3-pyridyl)] Acetamide]", "values": [{"measurement": "IC50", "setting": "[1]; [4]", "result": "< 10", "unit": "µM"}, {"measurement": "IC50 at 48 h", "setting": "[2]", "result": "≥ 10", "unit": "µM"}, {"measurement": "IC50", "setting": "[3]; [5]", "result": "< 10", "unit": "µM"}]}
{"compound": "Cc1cccc(C)c1-c1cc(-c2cncc(NC(=O)C(Cl)Cl)c2)on1", "note": "[Compound 21, 2,2-Dichloro-N-[5-[3-(2,6-dimethylphenyl)-5-isoxazolyl]-(3-pyridyl)] Acetamide]", "values": [{"measurement": "IC50", "setting": "[1]; [4]", "result": "< 10", "unit": "µM"}, {"measurement": "IC50 at 48 h", "setting": "[2]", "result": "≥ 10", "unit": "µM"}, {"measurement": "IC50", "setting": "[3]; [5]", "result": "> 10", "unit": "µM"}]}
{"compound": "O=C(Nc1cncc(-c2cc(-c3c(F)cccc3F)no2)c1)C(Cl)Cl", "note": "[Compound 27, 2,2-Dichloro-N-[5-[3-(2,6-difluorophenyl)-5-isoxazolyl]-(3-pyridyl)] Acetamide]", "values": [{"measurement": "IC50", "setting": "[1]; [4]", "result": "< 10", "unit": "µM"}, {"measurement": "IC50 at 48 h", "setting": "[2]", "result": "≥ 10", "unit": "µM"}, {"measurement": "IC50", "setting": "[3]; [5]", "result": "< 10", "unit": "µM"}]}
{"compound": "COc1cccc(C(F)(F)F)c1-c1cc(-c2cc(NC(=O)C(Cl)Cl)ccn2)on1", "note": "[Compound 49, 2,2-Dichloro-N-[2-[3-(2-methoxy-6-trifluoromethylphenyl)-5-isoxazolyl]-(4-pyridyl)] Acetamide]", "values": [{"measurement": "IC50", "setting": "[1]; [4]", "result": "< 10", "unit": "µM"}, {"measurement": "IC50 at 48 h", "setting": "[2]", "result": "≥ 10", "unit": "µM"}, {"measurement": "IC50", "setting": "[3]; [5]", "result": "< 10", "unit": "µM"}]}
{"compound": "O=C(Nc1ccnc(-c2cc(-c3c(Cl)cccc3N3CCN(c4ccccn4)CC3)no2)c1)C(Cl)Cl", "note": "[Compound 53]", "values": [{"measurement": "IC50", "setting": "[1]; [4]", "result": "< 10", "unit": "µM"}, {"measurement": "IC50", "setting": "[3]; [5]", "result": "< 10", "unit": "µM"}]}
{"compound": "COc1cccc(C(F)(F)F)c1-c1cc(-c2cncc(NC(=O)C(Cl)Cl)c2)on1", "note": "[Compound 57, 2,2-Dichloro-N-[5-[3-(2-methoxy-6-trifluoromethylphenyl)-5-isoxazolyl]-(3-pyridyl)] Acetamide]", "values": [{"measurement": "IC50", "setting": "[1]; [4]", "result": "< 10", "unit": "µM"}, {"measurement": "IC50 at 48 h", "setting": "[2]", "result": "> 5", "unit": "µM"}, {"measurement": "IC50", "setting": "[3]; [5]", "result": "< 10", "unit": "µM"}]}
